Measurements published in patent CN1063108A, “三氟甲基酮衍生物及其制备方法和用途” (Fujisawa Pharmaceutical Co Ltd, priority 1990, dated 1992).
Numbered stars: 1 amine (or outer) side, 2 acyl side, 3 side chain; on linkers, the order of the positions; unused ones are H or OH. Square brackets hold non-standard residues; d marks the D form. Peptide text beside a SMILES is read from it. * marks the point of attachment. ξ: configuration not given here. 4Abz = Nc1ccc(C(=O)O)cc1; CO = O=C([*:1])[*:2]; ξV = CC(C)C(N)C(=O)O; CF3 = FC(F)(F)*

Tests used:
[1] = test system: human sputum elastase-induced lung hemorrhage in hamsters; assay: Elastase-induced lung hemorrhage (hemoglobin in BAL cells, OD 541 nm); type: in vivo, hamster; conditions: for Hemorrhage (OD541nm) / % inhibition of lung hemorrhage: 5 min before elastase; for Hemorrhage (OD541nm): BAL 3 h later; for ED50, inhibition of lung hemorrhage: intratracheal, 5 min pre-dose
[2] = test system: HSE-induced paw edema in C57BL mice; assay: Human sputum elastase-induced mouse paw edema; type: in vivo; conditions: for Footpad thickness (difference right-left hind paw): 15 min before HSE 20 μg/site, measured 2 h after HSE
[3] = test system: PPE-induced emphysema in Golden Syrian hamsters; assay: Experimentally induced (porcine pancreatic elastase) emphysema in hamsters, lung mechanics; type: in vivo, hamster; conditions: for Cst (quasi-static lung compliance) / VC (vital capacity): 5 min before PPE 100 μg/site, 3 weeks later
[4] = 1 μg/site intratracheal, listed as 13
[5] = 10 μg/site intratracheal, listed as 13
[6] = 100 μg/site intratracheal, listed as 13
[7] = 1 μg/site intratracheal, listed as 19
[8] = 10 μg/site intratracheal, listed as 19
[9] = 100 μg/site intratracheal, listed as 19

CC(C)C(NC(=O)[C@@H]1CCCN1C(=O)[C@@H](NC(=O)c1ccc(C(=O)NCC(=O)O)cc1)C(C)C)C(=O)C(F)(F)F (stereo partly drawn) [实施例13, 3(RS)-[[4-(羧基甲基氨基羰基)苯基羰基]-L-缬氨酰基-L-脯氨酰基]氨基-1，1，1-三氟-4-甲基-2-氧代戊烷]
Hemorrhage (OD541nm) [1, 4]: 11.63±1.99 OD541nm | % inhibition of lung hemorrhage [1, 4]: 21.6% | Hemorrhage (OD541nm) [1, 5]: 4.217±1.02 OD541nm | % inhibition of lung hemorrhage [1, 5]: 74.5% | Hemorrhage (OD541nm) [1, 6]: 0.6384±0.222 OD541nm | % inhibition of lung hemorrhage [1, 6]: 100.0% | ED50, inhibition of lung hemorrhage ([1]; listed as 13): 3.0 μg/位点

CC(C)C(NC(=O)[C@@H]1CCCN1C(=O)[C@@H](NC(=O)c1ccc(C(=O)NCC(=O)O)cc1)C(C)C)C(=O)C(F)(F)F (stereo partly drawn) [实施例19, 3(RS)-[[4-(羧甲基氨基羰基)苯基羰基]-L-缬氨酰基-L-脯氨酰基]氨基-1，1，1-三氟-4-甲基-2-氧代戊烷]
Hemorrhage (OD541nm) [1, 7]: 11.59±1.40 OD541nm | % inhibition of lung hemorrhage [1, 7]: 10.8% | Hemorrhage (OD541nm) [1, 8]: 1.663±0.690 OD541nm | % inhibition of lung hemorrhage [1, 8]: 93.1% | Hemorrhage (OD541nm) [1, 9]: 0.2141±0.020 OD541nm | % inhibition of lung hemorrhage [1, 9]: 105.2% | ED50, inhibition of lung hemorrhage ([1]; listed as 19): 2.4 μg/位点 | % inhibition of paw edema ([2]; 1 mg/Kg s.c.): 6.4% | Footpad thickness (difference right-left hind paw) ([2]; 1 mg/Kg s.c.): 43.8±5.67 ×10-2mm | % inhibition of paw edema ([2]; 10 mg/Kg s.c.): 20.9% | Footpad thickness (difference right-left hind paw) ([2]; 10 mg/Kg s.c.): 37.0±13.41 ×10-2mm | % inhibition of paw edema ([2]; 100 mg/Kg s.c.): 42.3% | Footpad thickness (difference right-left hind paw) ([2]; 100 mg/Kg s.c.): 27.0±4.66 ×10-2mm | Cst, % inhibition ([3]; 1 μg/site intratracheal): 15% | VC, % inhibition ([3]; 1 μg/site intratracheal): 12% | Cst (quasi-static lung compliance) ([3]; 1 μg/site intratracheal): 1.39±0.05 ml/cm H2O | VC (vital capacity) ([3]; 1 μg/site intratracheal): 7.0 ± 0.1 mL | Cst, % inhibition ([3]; 10 μg/site intratracheal): 84% | VC, % inhibition ([3]; 10 μg/site intratracheal): 65% | Cst (quasi-static lung compliance) ([3]; 10 μg/site intratracheal): 0.70±0.04 ml/cm H2O | VC (vital capacity) ([3]; 10 μg/site intratracheal): 5.8 ± 0.1 mL | Cst, % inhibition ([3]; 100 μg/site intratracheal): 100% | VC, % inhibition ([3]; 100 μg/site intratracheal): 97% | Cst (quasi-static lung compliance) ([3]; 100 μg/site intratracheal): 0.53±0.02 ml/cm H2O | VC (vital capacity) ([3]; 100 μg/site intratracheal): 5.0 ± 0.1 mL | Potency compared with prior-art compounds by Cst and VC (in words) ([3]; based on Cst and VC values): 效力优于先有技术化合物A和B | Effect of pretreatment on PPE-induced increase in lung mechanics (in words) ([3]; dose-related, intratracheal pretreatment): 防止了PPE诱发的肺力学增加

CC(C)C(NC(=O)[C@@H]1CCCN1C(=O)[C@@H](NC(=O)c1ccc(C(=O)NCCN2CCOCC2)cc1)C(C)C)C(=O)C(F)(F)F.Cl (stereo partly drawn) [实施例21, 3(RS)-[[4-[[2-(4-吗啉代)乙基]氨基羰基]苯基羰基]-L-缬氨酰基-L-脯氨酰基]氨基-1，1，1-三氟-4-甲基-2-氧代戊烷盐酸盐]
% inhibition of lung hemorrhage ([1]; 1 μg/site intratracheal): 13.6% | Hemorrhage (OD541nm) ([1]; 1 μg/site intratracheal): 12.76±1.11 OD541nm | % inhibition of lung hemorrhage ([1]; 10 μg/site intratracheal): 66.3% | Hemorrhage (OD541nm) ([1]; 10 μg/site intratracheal): 5.372±2.06 OD541nm | % inhibition of lung hemorrhage ([1]; 100 μg/site intratracheal): 100.0% | Hemorrhage (OD541nm) ([1]; 100 μg/site intratracheal): 0.6476±0.129 OD541nm | ED50, inhibition of lung hemorrhage [1]: 4.5 μg/位点

CC(C)C(NC(=O)[C@@H]1CCCN1C(=O)[C@@H](NC(=O)Nc1ccc(C(=O)NCC(=O)O)cc1)C(C)C)C(=O)C(F)(F)F (stereo partly drawn) [实施例23, 3(RS)-[[4-(羧甲基氨基羰基)苯基氨基羰基]-L-缬氨酰基-L-脯氨酰基]氨基-1，1，1-三氟-2-氧代-4-甲基戊烷] ({Gly-4Abz-CO}-Val-Pro-[ξV]-CF3)
% inhibition of lung hemorrhage ([1]; 1 μg/site intratracheal): 16.0% | Hemorrhage (OD541nm) ([1]; 1 μg/site intratracheal): 9.435±0.941 OD541nm | % inhibition of lung hemorrhage ([1]; 10 μg/site intratracheal): 75.6% | Hemorrhage (OD541nm) ([1]; 10 μg/site intratracheal): 3.412±1.31 OD541nm | % inhibition of lung hemorrhage ([1]; 100 μg/site intratracheal): 102.1% | Hemorrhage (OD541nm) ([1]; 100 μg/site intratracheal): 0.7258±0.303 OD541nm | ED50, inhibition of lung hemorrhage [1]: 3.2 μg/位点

CC(C)C(NC(=O)CN(C(=O)[C@@H](NC(=O)c1ccc(C(=O)NCC(=O)[O-])cc1)C(C)C)C1Cc2ccccc2C1)C(=O)C(F)(F)F.[Na+] (stereo partly drawn) [实施例27, 3(RS)-[[4-(羧甲基氨基羰基)苯基羰基]-L-缬氨酰基-N-(2-二氢化茚基)甘氨酰基]氨基-1，1，1-三氟-4-甲基-2-氧代戊烷钠盐]
% inhibition of lung hemorrhage ([1]; 1 μg/site intratracheal): 24.8% | Hemorrhage (OD541nm) ([1]; 1 μg/site intratracheal): 10.68±1.25 OD541nm | % inhibition of lung hemorrhage ([1]; 10 μg/site intratracheal): 66.9% | Hemorrhage (OD541nm) ([1]; 10 μg/site intratracheal): 4.878±0.917 OD541nm | % inhibition of lung hemorrhage ([1]; 100 μg/site intratracheal): 99.8% | Hemorrhage (OD541nm) ([1]; 100 μg/site intratracheal): 0.3451±0.084 OD541nm | ED50, inhibition of lung hemorrhage [1]: 3.7 μg/位点

CC(C)C(NC(=O)CN(C(=O)[C@@H](NC(=O)c1ccc(C(=O)NCCN2CCOCC2)cc1)C(C)C)C1Cc2ccccc2C1)C(=O)C(F)(F)F.Cl (stereo partly drawn) [实施例29, 3(RS)-[[4-[[2-(4-吗啉代)乙基]氨基羰基]苯基羰基]-L-缬氨酰基-N-(2-二氢化茚基)甘氨酰基]氨基-1，1，1-三氟-4-甲基-2-氧代戊烷的盐酸盐]
% inhibition of lung hemorrhage ([1]; 1 μg/site intratracheal): 14.9% | Hemorrhage (OD541nm) ([1]; 1 μg/site intratracheal): 12.05±1.95 OD541nm | % inhibition of lung hemorrhage ([1]; 10 μg/site intratracheal): 43.2% | Hemorrhage (OD541nm) ([1]; 10 μg/site intratracheal): 8.155±1.76 OD541nm | % inhibition of lung hemorrhage ([1]; 100 μg/site intratracheal): 69.4% | Hemorrhage (OD541nm) ([1]; 100 μg/site intratracheal): 4.545±1.49 OD541nm | ED50, inhibition of lung hemorrhage [1]: 17.9 μg/位点
